Assay results published in the supplement of paper PMC10307832.

Tests used:
Assay in all cases: relative viability (nuclei count vs DMSO), 5 days (fraction); higher = more cells survive
[1] = compound: O=C(Nc1cccc(C(F)(F)F)c1)Nc1cc(S(=O)(=O)NC2CC2)ccc1-c1ccsc1 [AGI-6780] + Nc1nc2[nH]cc(CCc3ccc(C(=O)N[C@@H](CCC(=O)O)C(=O)O)cc3)c2c(=O)[nH]1 [Pemetrexed] (partner 0.2 µM)
Summary of the method: (§1)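 Nuclei were stained with Hoechst during a one-step fixation (final 0.05% Triton X-100, 1% formaldehyde, 1 ug/ml Hoechst) carried out 5 days after dosing, then counted on 4× images. The cells, lung cancer lines in 1536-well plates, had been dosed by pin tool the day after seeding with one drug alone or a fixed anchor-drug dose plus five library-drug doses (not always all listed) in √10 steps. Relative viability is the nuclei count in treated wells divided by that in vehicle wells, and each value is the median of duplicate plates.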

[2] = compound: O=C(Nc1cccc(C(F)(F)F)c1)Nc1cc(S(=O)(=O)NC2CC2)ccc1-c1ccsc1 [AGI-6780] + Cc1nc(Nc2ncc(C(=O)Nc3c(C)cccc3Cl)s2)cc(N2CCN(CCO)CC2)n1 [Dasatinib] (partner 0.075 µM)
Summary of the method: as §1

[3] = compound: O=C(Nc1cccc(C(F)(F)F)c1)Nc1cc(S(=O)(=O)NC2CC2)ccc1-c1ccsc1 [AGI-6780] + CS(=O)(=O)CCNCc1ccc(-c2ccc3ncnc(Nc4ccc(OCc5cccc(F)c5)c(Cl)c4)c3c2)o1 [Lapatinib] (partner 2 µM)
Summary of the method: as §1

[4] = compound: O=C(Nc1cccc(C(F)(F)F)c1)Nc1cc(S(=O)(=O)NC2CC2)ccc1-c1ccsc1 [AGI-6780] + C[C@@H](Oc1cc(-c2cnn(C3CCNCC3)c2)cnc1N)c1c(Cl)ccc(F)c1Cl [Crizotinib] (partner 1 µM)
Summary of the method: as §1

Cell Line: LU99A
- relative viability ([1]; first compound 0.08 µM): 0.193
- relative viability ([1]; first compound 0.253 µM): 0.162
- relative viability ([1]; first compound 0.8 µM): 0.196
- relative viability ([1]; first compound 2.53 µM): 0.195
- relative viability ([1]; first compound 8 µM): 0.163
- relative viability ([2]; first compound 0.08 µM): 0.52
- relative viability ([2]; first compound 0.253 µM): 0.58
- relative viability ([2]; first compound 0.8 µM): 0.689
- relative viability ([2]; first compound 2.53 µM): 0.401
- relative viability ([2]; first compound 8 µM): 0.629
- relative viability ([3]; first compound 0.08 µM): 1.12
- relative viability ([3]; first compound 0.253 µM): 0.98
- relative viability ([3]; first compound 0.8 µM): 0.976
- relative viability ([3]; first compound 2.53 µM): 0.825
- relative viability ([3]; first compound 8 µM): 1.03
- relative viability ([4]; first compound 0.08 µM): 0.606
- relative viability ([4]; first compound 0.253 µM): 0.484
- relative viability ([4]; first compound 0.8 µM): 0.627
- relative viability ([4]; first compound 2.53 µM): 0.473
- relative viability ([4]; first compound 8 µM): 0.669

Cell Line: NCI-H1651
- relative viability ([1]; first compound 0.08 µM): 0.542
- relative viability ([1]; first compound 0.253 µM): 0.643
- relative viability ([1]; first compound 0.8 µM): 0.633
- relative viability ([1]; first compound 2.53 µM): 0.556
- relative viability ([1]; first compound 8 µM): 0.623
- relative viability ([2]; first compound 0.08 µM): 0.361
- relative viability ([2]; first compound 0.253 µM): 0.534
- relative viability ([2]; first compound 0.8 µM): 0.528
- relative viability ([2]; first compound 2.53 µM): 0.341
- relative viability ([2]; first compound 8 µM): 0.544
- relative viability ([3]; first compound 0.08 µM): 0.83
- relative viability ([3]; first compound 0.253 µM): 0.911
- relative viability ([3]; first compound 0.8 µM): 0.959
- relative viability ([3]; first compound 2.53 µM): 0.805
- relative viability ([3]; first compound 8 µM): 1.04
- relative viability ([4]; first compound 0.08 µM): 0.821
- relative viability ([4]; first compound 0.253 µM): 0.902
- relative viability ([4]; first compound 0.8 µM): 0.898
- relative viability ([4]; first compound 2.53 µM): 0.878
- relative viability ([4]; first compound 8 µM): 0.879

Cell Line: NCI-H322M
- relative viability ([1]; first compound 0.253 µM): 0.669
- relative viability ([1]; first compound 0.8 µM): 0.622
- relative viability ([1]; first compound 2.53 µM): 0.636
- relative viability ([1]; first compound 8 µM): 0.585
- relative viability ([2]; first compound 0.08 µM): 0.253
- relative viability ([2]; first compound 0.253 µM): 0.259
- relative viability ([2]; first compound 0.8 µM): 0.242
- relative viability ([2]; first compound 2.53 µM): 0.237
- relative viability ([2]; first compound 8 µM): 0.261
- relative viability ([3]; first compound 0.08 µM): 0.638
- relative viability ([3]; first compound 0.253 µM): 0.57
- relative viability ([3]; first compound 0.8 µM): 0.608
- relative viability ([3]; first compound 2.53 µM): 0.552
- relative viability ([3]; first compound 8 µM): 0.626
- relative viability ([4]; first compound 0.08 µM): 0.785
- relative viability ([4]; first compound 0.253 µM): 0.861
- relative viability ([4]; first compound 0.8 µM): 1.02
- relative viability ([4]; first compound 2.53 µM): 0.986
- relative viability ([4]; first compound 8 µM): 0.858

Cell Line: SK-LU-1
- relative viability ([1]; first compound 0.08 µM): 0.981
- relative viability ([1]; first compound 0.253 µM): 0.93
- relative viability ([1]; first compound 0.8 µM): 0.765
- relative viability ([1]; first compound 2.53 µM): 0.984
- relative viability ([1]; first compound 8 µM): 1.11
- relative viability ([2]; first compound 0.08 µM): 0.172
- relative viability ([2]; first compound 0.253 µM): 0.183
- relative viability ([2]; first compound 2.53 µM): 0.135
- relative viability ([2]; first compound 8 µM): 0.17
- relative viability ([3]; first compound 0.08 µM): 0.928
- relative viability ([3]; first compound 0.253 µM): 0.857
- relative viability ([3]; first compound 0.8 µM): 0.683
- relative viability ([3]; first compound 2.53 µM): 0.863
- relative viability ([3]; first compound 8 µM): 1.14
- relative viability ([4]; first compound 0.08 µM): 1.01
- relative viability ([4]; first compound 0.253 µM): 0.904
- relative viability ([4]; first compound 0.8 µM): 0.629
- relative viability ([4]; first compound 2.53 µM): 0.936
- relative viability ([4]; first compound 8 µM): 0.878

Cell Line: NCI-H1666
- relative viability ([1]; first compound 0.08 µM): 0.9
- relative viability ([1]; first compound 0.253 µM): 1.02
- relative viability ([1]; first compound 0.8 µM): 0.847
- relative viability ([1]; first compound 2.53 µM): 1.02
- relative viability ([1]; first compound 8 µM): 0.863
- relative viability ([2]; first compound 0.08 µM): 0.785
- relative viability ([2]; first compound 0.253 µM): 0.79
- relative viability ([2]; first compound 0.8 µM): 0.872
- relative viability ([2]; first compound 2.53 µM): 0.708
- relative viability ([2]; first compound 8 µM): 0.877
- relative viability ([3]; first compound 0.08 µM): 0.784
- relative viability ([3]; first compound 0.253 µM): 0.597
- relative viability ([3]; first compound 0.8 µM): 0.578
- relative viability ([3]; first compound 8 µM): 0.73
- relative viability ([4]; first compound 0.08 µM): 1.09
- relative viability ([4]; first compound 0.253 µM): 0.897
- relative viability ([4]; first compound 0.8 µM): 1.03
- relative viability ([4]; first compound 8 µM): 1.05

Cell Line: NCI-H2126
- relative viability ([1]; first compound 0.08 µM): 0.743
- relative viability ([1]; first compound 0.253 µM): 0.649
- relative viability ([1]; first compound 0.8 µM): 0.616
- relative viability ([1]; first compound 2.53 µM): 0.676
- relative viability ([1]; first compound 8 µM): 0.768
- relative viability ([2]; first compound 0.08 µM): 0.632
- relative viability ([2]; first compound 0.253 µM): 0.657
- relative viability ([2]; first compound 0.8 µM): 0.566
- relative viability ([2]; first compound 2.53 µM): 0.381
- relative viability ([2]; first compound 8 µM): 0.586
- relative viability ([3]; first compound 0.08 µM): 0.782
- relative viability ([3]; first compound 0.253 µM): 0.798
- relative viability ([3]; first compound 0.8 µM): 0.73
- relative viability ([3]; first compound 2.53 µM): 0.586
- relative viability ([3]; first compound 8 µM): 0.757
- relative viability ([4]; first compound 0.08 µM): 1.1
- relative viability ([4]; first compound 0.253 µM): 1.01
- relative viability ([4]; first compound 0.8 µM): 1.03
- relative viability ([4]; first compound 2.53 µM): 1.02
- relative viability ([4]; first compound 8 µM): 1.05
